From ChEMBL document CHEMBL1649107, “Sulfonate-containing thiiranes as selective gelatinase inhibitors” (ACS Med Chem Lett, 2011)
Converted amounts (≈) assume the structure as drawn. The source made the active and inactive calls. The calls are words filed in the database; no cut-off is given here.

Experiments:
[1] = target: T1, Interstitial collagenase (Homo sapiens) (UniProt P03956); experiment: Inhibition of human recombinant MMP1 catalytic domain at 200 uM by substrate hydrolysis based fluorescence spectrophotometry
T1 sequence (whole entry): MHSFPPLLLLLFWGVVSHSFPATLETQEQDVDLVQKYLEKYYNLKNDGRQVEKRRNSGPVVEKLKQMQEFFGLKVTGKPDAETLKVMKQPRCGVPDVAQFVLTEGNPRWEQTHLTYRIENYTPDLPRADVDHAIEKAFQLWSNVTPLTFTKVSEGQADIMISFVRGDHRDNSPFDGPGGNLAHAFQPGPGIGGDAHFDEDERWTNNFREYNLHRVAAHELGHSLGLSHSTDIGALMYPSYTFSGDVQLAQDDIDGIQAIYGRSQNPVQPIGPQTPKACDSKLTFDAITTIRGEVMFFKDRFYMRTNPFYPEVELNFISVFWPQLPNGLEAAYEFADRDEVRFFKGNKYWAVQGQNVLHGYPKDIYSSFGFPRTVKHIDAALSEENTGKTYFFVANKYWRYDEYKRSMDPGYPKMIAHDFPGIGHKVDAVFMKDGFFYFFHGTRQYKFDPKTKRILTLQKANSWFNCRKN

Matrilysin = target: T2, Matrilysin (Homo sapiens, UniProt P09237)
T2 sequence (P09237 whole entry): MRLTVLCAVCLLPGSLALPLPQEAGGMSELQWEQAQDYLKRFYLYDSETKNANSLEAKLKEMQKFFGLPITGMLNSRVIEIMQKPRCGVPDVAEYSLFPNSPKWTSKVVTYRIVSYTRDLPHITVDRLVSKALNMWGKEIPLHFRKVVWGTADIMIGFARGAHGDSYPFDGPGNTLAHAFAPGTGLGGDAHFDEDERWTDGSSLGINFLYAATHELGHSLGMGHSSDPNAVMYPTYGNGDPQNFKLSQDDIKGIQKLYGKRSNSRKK
Description: Inhibition of human recombinant MMP7 catalytic domain by substrate hydrolysis based fluorescence spectrophotometry

[2] = Intrinsic clearance in rat liver microsomes at 200 uM by HPLC; format: ADME, Microsome
[3] = target: T3, Matrix metalloproteinase-14 (Homo sapiens, UniProt P50281); experiment: Inhibition of human recombinant MMP14 catalytic domain by substrate hydrolysis based fluorescence spectrophotometry
[4] = Half life in rat liver microsomes at 200 uM by HPLC; format: ADME, Microsome
[5] = target: T3, Matrix metalloproteinase-14; experiment: Inhibition of human recombinant MMP14 catalytic domain assessed as dissociation rate constant by substrate hydrolysis based fluorescence spectrophotometry
[6] = target: T4, Matrix metalloproteinase-9 (Homo sapiens, UniProt P14780); experiment: Inhibition of human recombinant MMP9 catalytic domain assessed as dissociation rate constant by substrate hydrolysis based fluorescence spectrophotometry
[7] = target: T5, Matrilysin (Homo sapiens) (UniProt P09237); experiment: Inhibition of human recombinant MMP7 catalytic domain assessed as dissociation rate constant by substrate hydrolysis based fluorescence spectrophotometry
T5 sequence (whole entry): T2 sequence (P09237 whole entry)

Stromelysin-1 [8] = target: T6, Stromelysin-1 (Homo sapiens, UniProt P08254); experiment: Inhibition of human recombinant MMP3 catalytic domain at 200 uM by substrate hydrolysis based fluorescence spectrophotometry
Target sequence in this assay (P08254 100-477 limits assumed): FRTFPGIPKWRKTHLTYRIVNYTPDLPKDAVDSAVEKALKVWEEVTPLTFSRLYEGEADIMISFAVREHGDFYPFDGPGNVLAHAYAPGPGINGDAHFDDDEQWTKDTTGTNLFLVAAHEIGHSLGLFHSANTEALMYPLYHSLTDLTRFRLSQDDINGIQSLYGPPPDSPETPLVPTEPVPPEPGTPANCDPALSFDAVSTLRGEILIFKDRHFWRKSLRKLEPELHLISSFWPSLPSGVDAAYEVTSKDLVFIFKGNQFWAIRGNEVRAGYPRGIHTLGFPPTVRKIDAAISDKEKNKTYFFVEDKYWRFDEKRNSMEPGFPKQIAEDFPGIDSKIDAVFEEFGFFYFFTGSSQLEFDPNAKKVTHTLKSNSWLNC

physchem = details: aqueous
Description: Aqueous solubility of the compound

[9] = target: 72 kDa type IV collagenase (Homo sapiens, UniProt P08253)
Description: Inhibition of MMP2 by substrate hydrolysis based fluorescence spectrophotometry

[10] = target: T4, Matrix metalloproteinase-9
Description: Inhibition of human recombinant MMP9 catalytic domain by substrate hydrolysis based fluorescence spectrophotometry

[11] = Half life in rat liver microsomes at 100 uM by HPLC; format: ADME, Microsome
[12] = Intrinsic clearance in rat liver microsomes at 100 uM by HPLC; format: ADME, Microsome
Stromelysin-1 [13] = target: T6, Stromelysin-1
Target sequence in this assay (P08254 whole entry, the tested form may be a part): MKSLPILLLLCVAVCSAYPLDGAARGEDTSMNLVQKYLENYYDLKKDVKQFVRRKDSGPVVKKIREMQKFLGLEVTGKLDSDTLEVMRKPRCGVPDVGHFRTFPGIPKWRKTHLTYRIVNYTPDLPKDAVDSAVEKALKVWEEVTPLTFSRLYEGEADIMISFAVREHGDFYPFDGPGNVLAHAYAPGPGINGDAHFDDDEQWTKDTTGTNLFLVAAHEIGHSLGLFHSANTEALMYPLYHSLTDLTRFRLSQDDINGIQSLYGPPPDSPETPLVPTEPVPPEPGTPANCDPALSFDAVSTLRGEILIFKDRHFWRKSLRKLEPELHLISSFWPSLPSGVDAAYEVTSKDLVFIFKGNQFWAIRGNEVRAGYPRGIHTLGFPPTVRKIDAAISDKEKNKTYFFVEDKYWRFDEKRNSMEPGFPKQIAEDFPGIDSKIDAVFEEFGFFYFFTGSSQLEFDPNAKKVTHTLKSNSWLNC
Description: Inhibition of human recombinant MMP3 catalytic domain by substrate hydrolysis based fluorescence spectrophotometry

[14] = target: T1, Interstitial collagenase (Homo sapiens); experiment: Inhibition of human recombinant MMP1 catalytic domain at 40 uM by substrate hydrolysis based fluorescence spectrophotometry
Stromelysin-1 [15] = target: T6, Stromelysin-1; experiment: Inhibition of human recombinant MMP3 catalytic domain at 20 uM by substrate hydrolysis based fluorescence spectrophotometry
Target sequence in this assay (P08254 100-477 limits assumed): as the sequence (P08254 100-477 limits assumed) above

[16] = target: T5, Matrilysin (Homo sapiens); experiment: Inhibition of human recombinant MMP7 catalytic domain at 40 uM by substrate hydrolysis based fluorescence spectrophotometry
[17] = target: T1, Interstitial collagenase (Homo sapiens); experiment: Inhibition of human recombinant MMP1 catalytic domain at 30 uM by substrate hydrolysis based fluorescence spectrophotometry
[18] = target: T5, Matrilysin (Homo sapiens); experiment: Inhibition of human recombinant MMP7 catalytic domain at 30 uM by substrate hydrolysis based fluorescence spectrophotometry
Interstitial collagenase = target: T7, Interstitial collagenase (Homo sapiens, UniProt P03956)
T7 sequence (P03956 whole entry): T1 sequence (whole entry)
Description: Inhibition of human recombinant MMP1 catalytic domain by substrate hydrolysis based fluorescence spectrophotometry

[19] = target: T1, Interstitial collagenase (Homo sapiens); experiment: Inhibition of human recombinant MMP1 catalytic domain at 20 uM by substrate hydrolysis based fluorescence spectrophotometry
[20] = target: T5, Matrilysin (Homo sapiens); experiment: Inhibition of human recombinant MMP7 catalytic domain at 20 uM by substrate hydrolysis based fluorescence spectrophotometry

T4 sequence (P14780 whole entry, the tested form may be a part): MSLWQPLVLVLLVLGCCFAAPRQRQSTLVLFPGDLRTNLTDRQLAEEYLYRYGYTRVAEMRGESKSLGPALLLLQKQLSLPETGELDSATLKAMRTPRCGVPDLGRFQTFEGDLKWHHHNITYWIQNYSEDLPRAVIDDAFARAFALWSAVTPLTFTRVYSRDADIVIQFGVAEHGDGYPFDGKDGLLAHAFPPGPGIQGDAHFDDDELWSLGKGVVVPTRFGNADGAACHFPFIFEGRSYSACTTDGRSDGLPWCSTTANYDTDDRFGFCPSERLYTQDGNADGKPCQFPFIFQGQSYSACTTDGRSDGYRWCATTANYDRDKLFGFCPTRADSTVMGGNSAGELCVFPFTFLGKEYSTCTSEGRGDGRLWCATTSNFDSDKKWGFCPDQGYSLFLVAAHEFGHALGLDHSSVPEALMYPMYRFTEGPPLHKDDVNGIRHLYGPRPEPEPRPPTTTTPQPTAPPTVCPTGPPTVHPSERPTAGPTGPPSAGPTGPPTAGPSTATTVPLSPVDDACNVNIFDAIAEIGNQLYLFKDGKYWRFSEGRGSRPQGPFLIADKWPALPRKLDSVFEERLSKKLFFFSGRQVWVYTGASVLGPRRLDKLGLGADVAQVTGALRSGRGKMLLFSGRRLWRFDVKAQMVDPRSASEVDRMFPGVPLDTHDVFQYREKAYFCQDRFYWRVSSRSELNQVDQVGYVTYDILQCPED
Chain of 72 kDa type IV collagenase (P08253 whole entry): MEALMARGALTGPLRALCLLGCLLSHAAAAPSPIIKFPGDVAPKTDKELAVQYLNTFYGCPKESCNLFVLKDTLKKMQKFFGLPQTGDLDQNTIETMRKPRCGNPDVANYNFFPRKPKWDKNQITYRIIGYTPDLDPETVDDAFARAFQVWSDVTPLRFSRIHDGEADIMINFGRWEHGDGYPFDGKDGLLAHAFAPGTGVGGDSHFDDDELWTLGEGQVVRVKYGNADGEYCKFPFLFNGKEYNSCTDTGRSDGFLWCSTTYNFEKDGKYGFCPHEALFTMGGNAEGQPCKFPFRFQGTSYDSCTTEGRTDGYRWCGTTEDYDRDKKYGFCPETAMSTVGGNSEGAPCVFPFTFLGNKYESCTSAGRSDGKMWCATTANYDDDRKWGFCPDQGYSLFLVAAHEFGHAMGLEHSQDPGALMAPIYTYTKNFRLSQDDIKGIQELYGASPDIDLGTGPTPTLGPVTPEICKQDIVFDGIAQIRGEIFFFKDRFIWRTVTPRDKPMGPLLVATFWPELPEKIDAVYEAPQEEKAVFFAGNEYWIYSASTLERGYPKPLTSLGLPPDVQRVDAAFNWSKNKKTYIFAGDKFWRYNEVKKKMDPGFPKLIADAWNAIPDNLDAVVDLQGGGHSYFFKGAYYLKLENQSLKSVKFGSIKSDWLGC

CCCS(=O)(=O)Oc1ccc(S(=O)(=O)CC2CS2)cc1 (stereo not given)
inhibition [1]: 30%
Ki (Matrilysin): 35000 nM
CLint scaled at 200 µM [2]: 47.2 mL/min/kg
Ki [3]: 32000 nM
half-life at 200 µM [4]: 29.8 min
Activity [5]: 1.5 ×10⁻³ /s
Activity [6]: 0.9 ×10⁻³ /s
Activity [7]: 0.8 ×10⁻³ /s
inhibition (Stromelysin-1 [8]): 58%
solubility (physchem): 96 µg/mL (≈ 285 µM)
Ki [9]: 280 nM
Ki [10]: 6200 nM

CS(=O)(=O)Oc1ccc(Oc2ccc(S(=O)(=O)CC3CS3)cc2)cc1 (stereo not given)
half-life at 100 µM [11]: 24.8 min
CLint scaled at 100 µM [12]: 56.5 mL/min/kg
Ki (Stromelysin-1 [13]): 600 nM
Activity [6]: 0.1 ×10⁻³ /s
solubility (physchem): 3.5 µg/mL (≈ 8.74 µM)

O=S(=O)(CC1CS1)c1ccc(Oc2ccccc2)cc1 (stereo not given)
Ki [3]: 110 nM
half-life at 100 µM [11]: 12 min
CLint scaled at 100 µM [12]: 117 mL/min/kg
Activity [6]: 7.1 ×10⁻³ /s

CCS(=O)(=O)Oc1ccc(Oc2ccc(S(=O)(=O)CC3CS3)cc2)cc1 (stereo not given)
Ki [3]: 360 nM
half-life at 100 µM [11]: 35.9 min
Activity [5]: 9 ×10⁻³ /s
CLint scaled at 100 µM [12]: 39 mL/min/kg
inhibition [14]: inactive
Activity [6]: 1.5 ×10⁻³ /s
inhibition (Stromelysin-1 [15]): 38%
solubility (physchem): 4.1 µg/mL (≈ 9.89 µM)
inhibition [16]: 8%
Ki [9]: 70 nM
Ki [10]: 330 nM

CCS(=O)(=O)Oc1ccc(S(=O)(=O)CC2CS2)cc1 (stereo not given)
inhibition [1]: 7%
Ki (Matrilysin): 26000 nM
CLint scaled at 200 µM [2]: 44.2 mL/min/kg
Ki [3]: 11000 nM
half-life at 200 µM [4]: 31.8 min
Activity [5]: 1.6 ×10⁻³ /s
Activity [6]: 1.8 ×10⁻³ /s
Activity [7]: 0.6 ×10⁻³ /s
inhibition (Stromelysin-1 [8]): 62%
solubility (physchem): 114 µg/mL (≈ 354 µM)
Ki [9]: 90 nM
Ki [10]: 12000 nM

CC(C)CS(=O)(=O)Oc1ccc(Oc2ccc(S(=O)(=O)CC3CS3)cc2)cc1 (stereo not given)
Ki [3]: 790 nM
half-life at 100 µM [11]: 16.2 min
Activity [5]: 2 ×10⁻³ /s
CLint scaled at 100 µM [12]: 86.5 mL/min/kg
inhibition [17]: inactive
Activity [6]: 2 ×10⁻³ /s
inhibition [18]: inactive
inhibition (Stromelysin-1 [15]): 5%
solubility (physchem): 1.1 µg/mL (≈ 2.49 µM)
Ki [9]: 61 nM
Ki [10]: 380 nM

CS(=O)(=O)Oc1ccc(S(=O)(=O)CC2CS2)cc1 (stereo not given)
Ki (Interstitial collagenase): 41000 nM
Ki (Matrilysin): 11000 nM
CLint scaled at 200 µM [2]: 31 mL/min/kg
Ki [3]: 480 nM
half-life at 200 µM [4]: 45.3 min
Activity [5]: 0.2 ×10⁻³ /s
Activity [6]: 0.25 ×10⁻³ /s
Activity [7]: 0.5 ×10⁻³ /s
inhibition (Stromelysin-1 [8]): 29%
solubility (physchem): 167 µg/mL (≈ 542 µM)
Ki [9]: 390 nM
Ki [10]: 3900 nM

CC(C)CS(=O)(=O)Oc1ccc(S(=O)(=O)CC2CS2)cc1 (stereo not given)
inhibition [1]: inactive
Ki (Matrilysin): 120000 nM
CLint scaled at 200 µM [2]: 38.8 mL/min/kg
Ki [3]: 20000 nM
half-life at 200 µM [4]: 36.1 min
Activity [5]: 1.7 ×10⁻³ /s
Activity [6]: 1.9 ×10⁻³ /s
Activity [7]: 1.4 ×10⁻³ /s
inhibition (Stromelysin-1 [8]): 25%
solubility (physchem): 230 µg/mL (≈ 656 µM)
Ki [9]: 240 nM
Ki [10]: 3500 nM

CCCS(=O)(=O)Oc1ccc(Oc2ccc(S(=O)(=O)CC3CS3)cc2)cc1 (stereo not given)
inhibition [19]: inactive
Ki [3]: 240 nM
half-life at 100 µM [11]: 12.6 min
Activity [5]: 1.8 ×10⁻³ /s
CLint scaled at 100 µM [12]: 111 mL/min/kg
Activity [6]: 1.6 ×10⁻³ /s
inhibition (Stromelysin-1 [15]): 22%
solubility (physchem): 4 µg/mL (≈ 9.33 µM)
Ki [9]: 34 nM
Ki [10]: 520 nM
inhibition [20]: 5%
